Results: US8110575B2, “Compounds” (Boehringer Ingelheim International GmbH, priority 2007, dated 2012)

These compounds were tested against T1, human CGRP receptor (Homo sapiens, UniProt O60894+Q16602) (assay: Binding studies with SK-N-MC cells (expressing the human CGRP receptor)). Conditions: SK-N-MC membranes, 125I-iodotyrosyl-CGRP displacement.
T1 construct: SK-N-MC membranes (˜20 μg protein) are incubated for 180 minutes at ambient temperature; endogenous in cells; host or cells: SK-N-MC cells (membrane preparation)
T1 sequence (Q16602 23-461): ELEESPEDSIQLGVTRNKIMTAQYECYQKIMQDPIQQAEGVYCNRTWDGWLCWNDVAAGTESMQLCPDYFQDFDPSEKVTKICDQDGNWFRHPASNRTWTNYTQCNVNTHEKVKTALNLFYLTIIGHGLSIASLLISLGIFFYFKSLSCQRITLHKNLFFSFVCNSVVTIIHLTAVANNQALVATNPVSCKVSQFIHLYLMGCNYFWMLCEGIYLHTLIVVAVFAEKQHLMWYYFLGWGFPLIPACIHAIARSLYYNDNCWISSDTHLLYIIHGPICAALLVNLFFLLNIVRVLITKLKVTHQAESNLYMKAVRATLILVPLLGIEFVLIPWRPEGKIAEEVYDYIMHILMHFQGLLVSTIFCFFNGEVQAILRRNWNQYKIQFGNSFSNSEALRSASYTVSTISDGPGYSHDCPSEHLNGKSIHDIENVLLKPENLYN
T1 sequence (O60894 27-148): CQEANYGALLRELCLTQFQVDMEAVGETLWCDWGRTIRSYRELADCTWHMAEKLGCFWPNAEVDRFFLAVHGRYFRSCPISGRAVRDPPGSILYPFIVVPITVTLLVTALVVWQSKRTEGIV
Procedure: A. Binding Studies with SK-N-MC Cells (Expressing the Human CGRP Receptor)
SK-N-MC membranes (˜20 μg protein) are incubated for 180 minutes at ambient temperature with 50 pM ^125I-iodotyrosyl-Calcitonin-Gene-Related Peptide and increasing concentrations of the test substances in a total volume of […] (assay buffer: 10 mM tris, 50 mM NaCl, 5 mM MgCl2, 1 mM EDTA, pH=7.4). The incubation is ended by rapid filtration through GF/B-glass fibre filters treated with polyethyleneimine (0.1%) using a cell harvester. The protein-bound radioactivity is measured using a gamma counter. Non-specific binding is defined as the bound radioactivity after the presence of 1 μM BIBN4096BS during incubation.
The concentration binding curves are analysed using computer-aided non-linear curve fitting.

| Ki [µM] | SMILES |
| --- | --- |
| 0.535 | O=C1Nc2ccccc2C2(CCN(c3cc(C(=O)N4CCc5ccccc54)ncn3)CC2)O1 [(3)] |
| 0.015 | O=C(c1cc(Nc2ccc3c(c2)CC2(C3)C(=O)Nc3ncccc32)ncn1)N1CCc2ccccc21 (stereo not shown) [(1)] |
| 0.132 | CN1C(=O)NC(=O)C12Cc1ccc(Nc3cc(C(=O)N4CCc5ccccc54)ncn3)cc1C2 (stereo not shown) [(9)] |
| 0.12 | O=C(c1cc(Nc2ccc3c(c2)CC2(C3)C(=O)Nc3ncccc32)ncn1)N(CC(F)(F)F)c1ccccc1 (stereo not shown) [(6)] |
